In one assay the test system is HeLa cells. In words: Inhibition of cell proliferation (GI50), HeLa. It is filed as cell-based. To be noted: Homo sapiens, 72 h, CellTiter-Glo. The procedure: (§1) Human breast cancer cells MX-1 and MDAMB435, hepatocarcinoma cells SNU398, colon cancer cells HCT116 and HeLa cells were grown and harvested as in Example 7. An aliquot of […] of cells (4.4×10^4 cells/mL) was added to a well of a 96-well microtiter plate containing 5 μL of a 10% DMSO in RPMI-1640 media solution containing 10 nM to 100 μM of R(−)-2,7,8-triamino-4-(3-bromo-4,5-dimethoxy-phenyl)-3-cyano-4H-chromene (1 nM to 10 μM final). An aliquot of 45 μL of cells was added to a well of a 96-well microtiter plate containing 5 μL of a 10% DMSO in RPMI-1640 media solution without compound as the control sample for maximal cell proliferation (LMax). The samples were mixed by agitation and then incubated at 37° C. for 72 h in a 5% CO2−95% humidity incubator. After incubation, the samples were removed from the incubator and 25 μL of CellTiter-Glo™ reagent (Promega) was added. The samples were mixed by agitation and incubated at room temperature for 10-15 min. Plates were then read using a luminescent plate reader (Model SPECTRAfluor Plus, Tecan) to give Ltest values.
(§2) Baseline for GI50 (dose for 50% inhibition of cell proliferation) of initial cell numbers was determined by adding an aliquot of 45 μL of cells or 45 μL of media, respectively, to wells of a 96-well microtiter plate containing 5 μL of a 10% DMSO in RPMI-1640 media solution. […]
(In general: ATP-based viability assays read luminescence as a measure of living cells.)

In a further assay the test system is solid tumor cells. In words: Caspase cascade activation and induction of apoptosis, overall statement. It is filed as cell-based, human. To be noted: summary of Table I. The procedure:
(§3) Human breast cancer cell lines T-47D and ZR-75-1, human colon cancer cell line DLD-1 and human non-small cell lung cancer cell line H1299 were grown according to media component mixtures designated by American Type Culture Collection+10% FCS (Invitrogen Corporation), in a 5% CO2−95% humidity incubator at 37° C. T-47D and ZR-75-1 cells were maintained at a cell density between 30 and 80% confluency at a cell density of 0.1 to 0.6×10^6 cells/mL. Cells were harvested at 600×g and resuspended at 0.65×10^6 cells/mL into appropriate media+10% FCS. An aliquot of […] of cells was added to a well of a 96-well microtiter plate containing 5 μl of a 10% DMSO in RPMI-1640 media solution containing about 0.16 to 10 μM of 2,7,8-triamino-4-(3-bromo-4,5-dimethoxy-phenyl)-3-cyano-4H-chromene (1) or other test compounds (0.016 to 1 μM final). An aliquot of 45 μl of cells was added to a well of a 96-well microtiter plate containing 5 μl of a 10% DMSO in RPMI-1640 media solution without test compound as the control sample. The samples were mixed by agitation and then incubated at 37° C. for 24 h in a 5% CO2−95% humidity incubator. […] Using a fluorescent plate reader (Model 1420 Wallac Instruments), an initial reading (T=0) was made about 1-2 min after addition of the substrate solution, employing excitation at 485 nm and emission at 530 nm, to determine the background fluorescence of the control sample. After the 3 h incubation, the samples were read for fluorescence as above (T=3 h).
(§4) The activity of caspase cascade activation was determined by the ratio of the net RFU value for 2,7,8-triamino-4-(3-bromo-4,5-dimethoxy-phenyl)-3-cyano-4H-chromene or other test compound to that of control samples. The EC50 (nM) was determined by a sigmoidal dose-response calculation (Prism 2.0, GraphPad Software Inc.).

A further assay has as its system DLD-1. As to the kind of experiment: Caspase activation assay in DLD-1 cells. It is filed as cell-based. To be noted: Homo sapiens, 24 h incubation, read-out: Caspase activation potency EC50 DLD-1. The procedure: as §3
The Relative Fluorescence Unit values (RFU) were used to calculate the sample readings as follows: RFU(T=3h)−Control RFU(T=0)=Net RFU(T=3h)
as §4

In assay [1] the test system is MX1 human breast cancer tumors. In words: In vivo antitumor activity in MX-1 model, single agent. Details: species or system mice. The procedure: MX1 human breast cancer tumors were obtained from the NCI-FCRDC and maintained as tumors in nude mice. Tumor bits were implanted with a trocar into the right mammary area of female nu/nu mice and allowed to grow to an average size of 200-250 mg, about 12 days after being implanted. Animals were randomized and assigned to study groups of 8-10 animals/group. Body weight were determined and tumor size were measured by calipers and converted to volume by the standard formula of Vol=L×W^2/2. Compound 1R was formulated in 7% PEG400/9% Tween80/84% D5W and administered IV via the tail vein at the indicated days and doses. Day 1 of the study was the first day of treatment. Survival time was the number of days for the tumor to reach 1000 mg or death, whichever occurred earliest. Median survival is the median for the group.

A further assay concerns SNU398. As to the kind of experiment: Inhibition of cell proliferation (GI50), SNU398. It is filed as cell-based. As to conditions: Homo sapiens, SNU-398; Snu398 cells, 72 h, CellTiter-Glo. The procedure:
as §1, §2

The next assay deals with MX-1. In words: Inhibition of cell proliferation (GI50), MX-1. As to conditions: Homo sapiens; MX1 cells, 72 h, CellTiter-Glo. It is filed as cell-based. The procedure: as §1, §2
The subject of a further assay is MDAMB435. In words: Inhibition of cell proliferation (GI50), MDAMB435. The class given is cell-based. As to conditions: Homo sapiens, MDA-MB-435; MDAMB435 cells, 72 h, CellTiter-Glo. The procedure: as §1, §2

Broadly, the GI50 is the concentration that inhibits growth by half. As a reminder, the EC50 is the midpoint of the concentration-response curve. Turning to `COc1cc([C@H]2C(C#N)=C(N)Oc3c2ccc(N)c3N)cc(Br)c1OC` [Compound 1R, R(−)-2,7,8-triamino-4-(3-bromo-4,5-dimethoxy-phenyl)-3-cyano-4H-chromene], the GI50 came to 25 nM in the assay with HeLa cells, 28 nM in the assay on SNU398, 17 nM in the assay on MX-1 and 9 nM in the assay with MDAMB435. In the assay with solid tumor cells, the “Caspase cascade activator and inducer of apoptosis (in words)” value is “potent caspase cascade activator and inducer of apoptosis”. Moreover, the EC50 with DLD-1 stood at 57 nM. For the same compound, the Median survival time is given as 19 days in assay [1] (20 mg/kg IV, once a day for days 1-3 (QD × 3)); 46 days in assay [1] (20 mg/kg IV, once a day for days 1-5 (QD × 5)); 27.5 days in assay [1] (20 mg/kg IV, once a week, day 1, 8, 15 (QW × 3)); 38 days in assay [1] (40 mg/kg IV, once a day for days 1-3 (QD × 3)); more than 100 days in assay [1] (40 mg/kg IV, once a day for days 1-5 (QD × 5)); 41 days in assay [1] (40 mg/kg IV, once a week, day 1, 8, 15 (QW × 3)). For the same compound, the Median survival time worked out at 78 days in assay [1] (60 mg/kg IV, once a day for days 1-3 (QD × 3)) and 37.5 days in assay [1] (60 mg/kg IV, once a week, day 1, 8, 15 (QW × 3)).

The record behind these values is patent publication US7968595B2, “Substituted 4-aryl-chromene as activator of caspases and inducer of apoptosis and as antivascular agent and the use thereof” (Cytovia, Inc., priority 2006, dated 2011).
